In ChEMBL document CHEMBL4613224, “Synthesis, in-vitro antiprotozoal activity and molecular docking study of isothiocyanate derivatives” (Bioorg Med Chem, 2020):
pIC50: −log10 of the molar value. The source made the active and inactive calls. The rule behind the calls is not given here.

Assays:
[1] = system: Trypanosoma brucei rhodesiense; assay: Antitrypanosomal activity against bloodstream Trypanosoma brucei rhodesiense STIB900 assessed as parasite growth inhibition measured after 70 hrs by Alamar blue assay; assay type: functional, organism-based; settings: STIB900, 70 h
Trypanosoma cruzi [2] = assay: Antitrypanosomal activity against Trypanosoma cruzi Tulahuen C4 trypomastigotes infected in rat L6 cells assessed as parasite growth inhibition at 2 ug/ml measured after 96 hrs by inverted microscopy analysis relative to control; assay type: functional; settings: for inhibition at 2 µg/mL: Tulahuen C4, L6, 96 h
L6 = assay: Cytotoxicity against rat L6 cells assessed as reduction in cell viability measured after 72 hrs by Alamar blue based inverted microscopy analysis; settings: L6, 72 h
[3] = (§1) Selectivity index, ratio of IC50 for rat L6 cells assessed as reduction in cell viability measured after 72 hrs by Alamar blue based inverted microscopy analysis to IC50 for bloodstream Trypanosoma brucei rhodesiense STIB900 assessed as parasite growth inhibition measured after 70 hrs by Alamar blue assay; assay type: toxicity; settings: read-out: Ratio IC50
[4] = system: Trypanosoma brucei rhodesiense; assay: Antitrypanosomal activity against bloodstream Trypanosoma brucei rhodesiense STIB900 assessed as parasite growth inhibition at 2 ug/ml measured after 70 hrs by Alamar blue assay relative to control; assay type: functional; settings: for inhibition at 2 µg/mL: STIB900, 70 h
Leishmania donovani [5] = assay: Antileishmanial activity against Leishmania donovani MHOM-ET-67/L82 axenic amastigotes assessed as parasite growth inhibition at 2 to 10 ug/ml measured after 72 hrs by Alamar blue based inverted microscopy analysis relative to control; assay type: functional
Leishmania donovani [6] = assay: Antileishmanial activity against Leishmania donovani MHOM-ET-67/L82 axenic amastigotes assessed as parasite growth inhibition measured after 72 hrs by Alamar blue based inverted microscopy analysis; assay type: functional, organism-based; settings: MHOM-ET-67/L82, 72 h
Plasmodium falciparum = assay: Antiplasmodial activity against Plasmodium falciparum NF54 measured after 24 hrs in presence of [3H] hypoxanthine by liquid scintillation counter analysis; assay type: functional, organism-based
[7] = as §1, with “Leishmania donovani MHOM-ET-67/L82 axenic amastigotes” for “bloodstream Trypanosoma brucei rhodesiense STIB900”, “72” for “70”, “based inverted microscopy analysis” for “assay”; assay type: toxicity; settings: for selectivity ratio at 72 h: L6 cells, read-out: Ratio IC50
[8] = Selectivity index, ratio of IC50 for rat L6 cells assessed as reduction in cell viability measured after 72 hrs by Alamar blue based inverted microscopy analysis to IC50 for Plasmodium falciparum NF54 measured after 24 hrs in presence of [3H] hypoxanthine by liquid scintillation counter analysis; assay type: toxicity; settings: read-out: Ratio IC50
[9] = system: Trypanosoma brucei brucei; assay: Antitrypanosomal activity against Trypanosoma brucei brucei assessed as parasite growth inhibition; assay type: functional, organism-based
Trypanosoma cruzi [10] = assay: Antitrypanosomal activity against Trypanosoma cruzi Tulahuen C4 trypomastigotes infected in rat L6 cells assessed as parasite growth inhibition measured after 96 hrs by inverted microscopy analysis; assay type: functional, organism-based; settings: Tulahuen C4, L6, 96 h
[11] = Selectivity index, ratio of IC50 for rat L6 cells assessed as reduction in cell viability measured after 72 hrs by Alamar blue based inverted microscopy analysis to IC50 for Trypanosoma cruzi Tulahuen C4 trypomastigotes infected in rat L6 cells assessed as parasite growth inhibition measured after 96 hrs by inverted microscopy analysis; assay type: toxicity; settings: read-out: Ratio IC50

SMILES	pIC50 [1]	inhibition (Trypanosoma cruzi [2])	pIC50 (L6; read-out: IC50)	selectivity ratio at 72 h [3]	inhibition at 2 µg/mL [4] [%]	inhibition (INH) (Leishmania donovani [5]) [%]	pIC50 (Leishmania donovani [6])	pIC50 (Plasmodium falciparum)	selectivity ratio at 72 h [7]	selectivity ratio at 72 h [8]	also measured
C[C@@H](CCCN=C=S)[C@H]1CC[C@H]2[C@@H]3[C@@H](O)C[C@@H]4C[C@H](O)CC[C@]4(C)[C@H]3CC[C@]12C	5.80	inactive	5.37	2.7	> 50	>90	–	–	–	–	–
CC(C)c1ccc2c(c1)CC[C@H]1[C@](C)(CN=C=S)CCC[C@]21C	5.24	inactive	5.00	1.8	> 50	>90	5.38	5.96	2.4	9.4	–
COc1ccc(N=C=S)cc1OC	–	inactive	–	–	50	–	–	–	–	–	inhibition (Leishmania donovani [5]): inactive
COC(=O)[C@H](Cc1ccccc1)N=C=S	–	inactive	4.86	–	> 50	>90	6.00	–	14.4	–	–
CNCCc1c([C@H]2[C@H]3[C@H](C=C(C)CC3(C)C)c3c(CCNC)c4ccccc4n32)[nH]c2ccccc12	–	–	–	–	–	–	–	–	–	–	pIC50 [9]: 5.55
COc1ccc2c(c1OC)CO[C@@H]2[C@H]1c2c(cc3c(c2OC)OCO3)CCN1C(CN)c1ccc(C)cc1 (some centres undefined)	6.00	–	4.63	24.4	> 50	–	–	5.74	–	12.8	–
C[C@@H](CCC(N)=O)[C@H]1CC[C@H]2[C@@H]3[C@H](O)C[C@@H]4C[C@H](O)CC[C@]4(C)[C@H]3C[C@H](O)[C@]12C	–	–	–	–	–	–	–	–	–	–	inhibition [4]: inactive
COc1ccc2c(c1OC)CO[C@@H]2[C@H]1c2c(cc3c(c2OC)OCO3)CCN1[C@@H](CN=C=S)c1ccc(F)cc1	5.77	inactive	4.87	8	> 50	>90	6.10	5.68	17.5	6.5	–
Fc1ccc(N=C=S)cc1	4.33	inactive	3.54	6.2	> 50	–	–	–	–	–	inhibition (Leishmania donovani [5]): inactive
CC(C)=C[C@H]1C[C@H](/C=C/c2[nH]c3ccccc3c2CCN(C)C)n2c1c(CCN(C)C)c1ccccc12	–	–	–	–	–	–	–	–	–	–	pIC50 [9]: 5.21
COc1ccc2c(c1OC)CO[C@@H]2[C@H]1c2c(cc3c(c2OC)OCO3)CCN1C(CN=C=S)c1cccnc1 (some centres undefined)	5.57	–	5.15	2.6	> 50	>90	6.05	5.60	8	2.9	pIC50 (Trypanosoma cruzi [10]): 5.72; inhibition at 2 µg/mL (Trypanosoma cruzi [2]): 100%; selectivity ratio at 72 h [11]: 3.8
COc1ccc2c(c1OC)CO[C@@H]2[C@H]1c2c(cc3c(c2OC)OCO3)CCN1C(CN)c1ccccc1 (some centres undefined)	5.85	–	4.92	8.8	> 50	–	–	5.70	–	6	–
COc1ccc2c(c1OC)CO[C@@H]2[C@H]1c2c(cc3c(c2OC)OCO3)CCN1C(CN=C=S)c1ccccc1 (some centres undefined)	5.64	inactive	4.73	8.2	> 50	>90	6.00	5.43	18.4	5.07	–
C[C@@H](CCCN=C=S)[C@H]1CC[C@H]2[C@@H]3[C@H](O)C[C@@H]4C[C@H](O)CC[C@]4(C)[C@H]3C[C@H](O)[C@]12C	5.89	inactive	5.41	2.9	> 50	>90	6.30	5.28	7.8	0.7	–
COc1cc([C@@H]2c3cc4c(cc3[C@H](O)[C@H]3COC(=O)[C@H]23)OCO4)cc(OC)c1OC [PODOFILOX]	–	–	–	–	–	–	–	–	–	–	pIC50 (L6): 7.92
Nc1nc(N)nc(Nc2ccc([As]3SCC(CO)S3)cc2)n1 (centres undefined) [MELARSOPROL]	–	–	4.62	3230	–	–	–	–	–	–	–

SMILES	pIC50 [1]	inhibition (Trypanosoma cruzi [2])	pIC50 (L6; read-out: IC50)	selectivity ratio at 72 h [3]	inhibition at 2 µg/mL [4] [%]	inhibition (INH) (Leishmania donovani [5]) [%]	pIC50 (Leishmania donovani [6])	pIC50 (Plasmodium falciparum)	selectivity ratio at 72 h [7]	selectivity ratio at 72 h [8]	also measured
C[C@@H](CCCN=C=S)[C@H]1CC[C@H]2[C@@H]3CC[C@@H]4C[C@H](O)CC[C@]4(C)[C@H]3CC[C@]12C	5.01	inactive	5.35	0.5	> 50	>90	5.27	5.39	0.8	1.1	–
C[C@@H](CCC(N)=O)[C@H]1CC[C@H]2[C@@H]3CC[C@@H]4C[C@H](O)CC[C@]4(C)[C@H]3C[C@H](O)[C@]12C	–	–	–	–	–	–	–	–	–	–	inhibition [4]: inactive
O=C(Cn1ccnc1[N+](=O)[O-])NCc1ccccc1 [BENZNIDAZOLE]	–	–	< 3.42	–	–	–	–	–	196	–	pIC50 (Trypanosoma cruzi [10]): 5.62; selectivity ratio at 72 h [11]: > 158
S=C=NCc1ccccc1 [BENZYL ISOTHIOCYANATE]	–	inactive	–	–	> 50	–	–	–	–	–	inhibition (Leishmania donovani [5]): inactive
Cc1ccc(N=C=S)cc1	4.43	inactive	3.49	8.8	> 50	–	–	–	–	–	inhibition (Leishmania donovani [5]): inactive
COc1ccc2c(c1OC)CO[C@@H]2[C@H]1c2c(cc3c(c2OC)OCO3)CCN1C(CN=C=S)c1ccc2c(c1)Cc1ccccc1-2 (some centres undefined)	5.19	inactive	5.41	0.6	> 50	>90	5.89	5.59	3.1	1.5	–
COc1ccc2c(c1OC)CO[C@@H]2[C@H]1c2c(cc3c(c2OC)OCO3)CCN1[C@@H](CN)c1cccnc1	5.41	–	4.84	3.7	> 50	–	–	–	–	–	–
CCc1ccccc1N=C=S	–	inactive	–	–	> 50	–	–	–	–	–	inhibition (Leishmania donovani [5]): inactive
C[C@@H](CCC(N)=O)[C@H]1CC[C@H]2[C@@H]3CC[C@@H]4C[C@H](O)CC[C@]4(C)[C@H]3CC[C@]12C	–	–	–	–	–	–	–	–	–	–	inhibition [4]: inactive
S=C=NCCc1c[nH]c2ccccc12	5.40	inactive	5.15	1.8	> 50	>90	5.77	4.99	4.2	0.7	–
C[C@@H](CCCN=C=S)[C@H]1CC[C@H]2[C@@H]3[C@H](O)C[C@@H]4C[C@H](O)CC[C@]4(C)[C@H]3CC[C@]12C	5.35	inactive	5.27	1.2	> 50	>90	5.82	5.31	3.6	1.1	–
COc1ccc2c(c1OC)CO[C@@H]2[C@H]1c2c(cc3c(c2OC)OCO3)CCN1[C@@H](CN)c1ccc(F)cc1	5.89	–	4.41	29.3	> 50	–	–	5.57	–	14.5	pIC50 (Trypanosoma cruzi [10]): 4.97; inhibition at 2 µg/mL (Trypanosoma cruzi [2]): 53%; selectivity ratio at 72 h [11]: 3.7
COc1ccc2c(c1OC)CO[C@@H]2[C@H]1c2c(cc3c(c2OC)OCO3)CCN1C(CN=C=S)c1ccc(C)cc1 (some centres undefined)	5.51	inactive	5.82	0.5	> 50	>90	6.10	5.96	1.7	1.4	–
COc1ccc2c(c1OC)CO[C@@H]2[C@H]1c2c(cc3c(c2OC)OCO3)CCN1C(CN)c1ccc2c(c1)Cc1ccccc1-2 (some centres undefined)	5.46	–	4.71	5.6	> 50	–	–	5.74	–	11.2	–
COC(=O)[C@H](Cc1c[nH]c2ccccc12)N=C=S	4.65	inactive	4.11	3.5	> 50	>90	5.15	4.99	10.9	7.7	Ratio IC50 ([7]; 72 h): 14.4
